Experimental data taken from PMC5555576, “Selective small-chemical inhibitors of protein arginine methyltransferase 5 with anti-lung cancer activity” (PLoS ONE, 2017).

Columns and labels:
[1] = system: arginine methylation in histone H2A, histone H4 and B-Raf in A549 cells; assay: Western blot of symmetrical arginine dimethylation of PRMT5 substrates in cells; type: cell-based; conditions: 20 μM, SYM10 antibody
Method: Histones were purified as reported previously. Briefly, cells (1–5 x 10^6) or lung tumors (10–100 mg) were lysated using a glass dounce in 1 ml of 1x Passive Lysis Buffer (Promega) and nuclear pellets were collected by centrifugation at 3,000 rpm for 5 min at 4 °C. The supernatant was discard and the pellets were washed with 1 ml of 1x Passive Lysis Buffer. Nuclear pellets were resuspended in 0.4 ml of the buffer (10 mM Trs-HCl, pH7.9, 0.2 mM EDTA, 1 mM DTT, 20% glycerol, 0.42 M KCl) and incubate for 30 min on ice, and centrifuged at 12,000 rpm for 10 min at 4 °C. The supernatant (histones extract) was transferred to a new tube and histones were precipitated by 20% trichloroacetic acid.
Protein extracts or histones (20 μg) were subjected to 10% or 15% sodium dodecyl sulfate-polyacrylamide gel electrophoresis, respectively then transferred to Immobilon-P membranes (Millipore). The blots were then probed for 2 hours with the primary antibody at dilutions of 1:500 (anti-symmetrical dimethylated arginine, SYM10, EMD Millipore), 1:1,000 (anti-B Raf, ab65050, Abcam) or 1:1,000 (anti-PRMT5, Abcam). The blots were then incubated with a horseradish peroxide-conjugated secondary antibody (1:5,000; Fischer Scientific) for 1.5 h. Immunoreactive proteins were detected using an enhanced chemiluminescence detection system (GE Healthcare) per the manufacturer’s instructions. Protein concentrations were determined using the Bradford protein assay reagent (Bio-Rad).
A, The cellular permeability of identified compounds. Lung cancer A549 cells were cultured in the presence of various concentrations of compounds for 2h and the compound concentrations in the cell were determined by HPLC chromatography with a C18 column. B, The cellular stability of identified compounds. […] The compound concentrations in the cell were determined by HPLC chromatography with a C18 column. […] Histones were purified and analyzed by SDS-PAGE stained with Commassie blue (lanes 1–4, bottom) or by Western blot with anti-symmetric dimethyl arginine antibody (SYM10) (lanes 1–4, top). […]

PC14 cells = assay: Cell growth by cell counting, PC14; type: cell-based; conditions: 2 days post treatment
Method: Lung cancer A549 (ATCC) and PC14 (ATCC) cells were cultured in minimum essential medium (Cellgro) with 10% (v/v) fetal bovine serum (FBS) (HyClone), 2% vitamins, 1% L-glutamine, 1% non-essential amino acids and 1% sodium pyruvate. For the treatment with identified compounds, cells (2, 000 cells/well) were seeded in 24-well plates in the medium containing 2% FBS. The fresh medium containing identified compounds was added 24 hours later. Cells were cultured for various times in a CO2 incubator and the cell numbers were counted. Each experiment was performed in triplicate.
A, Lung cancer A549 cells were cultured in the presence of various concentrations (μM) of identified compounds and growth inhibition was determined by cell counting at various time points. B, Lung cancer PC14 cells were cultured in the presence of DMSO or various concentrations of identified compounds and growth inhibition was determined by cell counting 2 days post the compound treatment. C, The serum concentrations of compound C9 after oral administration. Mice were sacrificed and blood samples were collected immediately before (0 h) and at 2, 4, 6 and 8h after compound administration.

[2] = Plasma concentrations after administration, LC-MS/MS; type: in vivo, BALB/c mice; conditions: mouse
Method: Male BALB/c mice (8–10 weeks old) were purchased from Charles River Laboratory and were randomized for compound administration. Chemical compounds were dissolved in 0.1 ml of 0.5% (w/v) carboxymethycellulose (Sigma-Aldrich) plus 0.5% Tween 80 (Fisher Scientific) and administrated by oral gavage at the dosage of 50 mg/kg or 100 mg/kg. Mice were sacrificed and blood samples were collected immediately before (n = 5) and at 2 (n = 5), 4 (n = 5), 6 (n = 5) or 8 (n = 8) h after compound administration. Plasma samples were sent to the Pharmaceutical Development Center at MD Anderson Cancer Center for LC-MS/MS assay to determine compound concentrations.
Supplementary file pone.0181601.s001.tif: S1 Fig The serum concentrations of compound C9. The chemical compound was dissolved in 5% DMSO-0.5% Tween 80. BALB/c mice (8–10 weeks old) were randomized and administrated the vehicle (0.1 ml) or compound C9 dissolved in the vehicle (0.1 ml) by intraperitoneal (I.P.) injection at the dosage of 25, 50 or 100 mg/kg. Mice were sacrificed and blood samples were collected immediately before (0 h, n = 5) and at 2 (n = 5), 4 (n = 5), 6 (n = 5) and 8 (n = 5) h after compound administration. Plasma samples were sent to the Pharmaceutical Development Center at MD Anderson Cancer Center for LC-MS/MS assay to determine compound concentrations. (TIF) Click here for additional data file.

[3] = system: CDK2 (Rb pT821) in A549 cells; assay: Western blot of Rb phosphorylation at T821; type: cell-based; conditions: 20 μM, 4 h
Description: (§1) The retinoblastoma protein (Rb) is phosphorylated by CKDs in cells.
(§2) (TIF) Click here for additional data file.

[4] = system: CDK4/6 (Rb pS811) in A549 cells; assay: Western blot of Rb phosphorylation at S811; type: cell-based; conditions: 20 μM, 4 h
Description: as §1, §2

| oral drug availability compared to C9 ([2]; oral gavage) | Structure (SMILES) | arginine methylation in histone H2A, histone H4 and B-Raf [1] | PC14 cell growth inhibition (PC14 cells) | plasma concentration reached ([2]; intraperitoneal injection, 100 mg/kg) | maximal plasma concentration ([2]; oral gavage, 100 mg/kg) | Rb phosphorylation at the site T821 by CDK2 [3] | Rb phosphorylation at the site S811 by CDK4/6 [4] |
| --- | --- | --- | --- | --- | --- | --- | --- |
|  | CCn1c(=O)[nH]c2cc(C(=O)Nc3ccc(OC)cc3)ccc2c1=O [Compound C5] | significantly inhibited | inhibited PC14 cell growth |  |  |  |  |
|  | COc1ccc(Nc2ncnc3c2cnn3Cc2ccc(C)cc2)cc1 [Compound C9] | significantly inhibited | inhibited PC14 cell growth | 38 µM | 5.8 µM | failed to inhibit | failed to inhibit |
| improved oral drug availability | Nc1cccc(Nc2ncnc3c2cnn3Cc2ccccc2)c1 [Compound C9a] |  |  |  |  | failed to inhibit | failed to inhibit |
|  | Cn1cc(C(c2ccc(O)c(O)c2O)c2cn(C)c3ccccc23)c2ccccc21 [Compound C11] | significantly inhibited | inhibited PC14 cell growth |  |  |  |  |
